Data: PMC10641811 (Journal of Medicinal Chemistry, 2023)
pIC50, pKi: −log10 of the molar value.

Columns and labels:
WT PRC2-EZH2 = settings: cited from earlier work
EZH2-EED interaction = settings: cited from earlier work
NS5 = settings: read-out: NS5 Ki; cited from earlier work
Shank3 PDZ domain = settings: read-out: Shank3 IC50; cited from earlier work
ABCC2 = settings: read-out: IC50 in at least one assay; cited from earlier work
[1] = assay type: physicochemical; settings: for discoloration when dissolved in DMSO: 5 days at ambient temperature; for discoloration of solutions prepared for NMR: DMSO-d6 or CDCl3, ambient temperature
MSN/CD44 = MSN/CD44 (Homo sapiens, UniProt P26038); assay type: binding; settings: for activity in MSN/CD44 TR-FRET assay: in words
cell cycle progression = settings: at ≥30 μM; cited from earlier work
[2] = test system: diacylglycerol kinase α (DGKα); settings: at 5 μM; cited from earlier work
δ-isozyme of DGK = settings: at 5 μM; cited from earlier work
κ-isozyme of DGK = settings: at 5 μM; cited from earlier work
ι-isozyme of DGK = settings: at 5 μM; cited from earlier work
H. pylori = settings: cited from earlier work
IspF domain = settings: cited from earlier work

Chain of MSN/CD44 (P26038 2-295): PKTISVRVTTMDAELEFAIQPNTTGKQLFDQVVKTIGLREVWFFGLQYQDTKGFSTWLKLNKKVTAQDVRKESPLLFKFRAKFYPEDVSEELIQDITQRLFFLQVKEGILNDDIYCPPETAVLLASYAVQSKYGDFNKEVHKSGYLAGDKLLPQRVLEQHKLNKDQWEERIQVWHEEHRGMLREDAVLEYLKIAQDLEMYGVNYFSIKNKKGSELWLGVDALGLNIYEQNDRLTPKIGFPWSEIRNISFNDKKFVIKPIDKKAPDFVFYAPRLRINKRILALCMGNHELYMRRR

In the case of `O=C(O)c1cc(-c2ccccn2)c2c(c1)C1C=CCC1C(C(=O)O)N2` (centres unmarked) [WNN2074-A009], the “inhibition of WT PRC2-EZH2” value (WT PRC2-EZH2) is listed as “inhibited” and the “inhibition of the EZH2-EED interaction” value (EZH2-EED interaction) is listed as “weak”.

In the case of `O=C(O)C1Nc2c(I)cccc2C2C=CCC12` (centres unmarked) [Compound 5660163], the pKi (NS5) is listed as greater than 5.00.

For `O=C(O)[C@@H]1Nc2c(O)cc(Cl)c([N+](=O)[O-])c2[C@@H]2C=CC[C@H]12` [Compound 34], the pIC50 (Shank3 PDZ domain) is listed as greater than 3.60.

For `O=C(O)C1Nc2c(F)cccc2C2C=CCC12` (centres unmarked) [Compound 1e], the pIC50 (ABCC2) is listed as greater than 4.52.

With `O=C(O)c1ccc2c(c1)C1CCCC1C(C(=O)O)N2` (centres unmarked) [Compound 3] the “discoloration when dissolved in DMSO” value [1] was “No discoloration” and the “activity in MSN/CD44 TR-FRET assay” value (MSN/CD44) was “inactive”.

For `O=C(O)c1ccc2c(c1)C1C=CCC1C(C(=O)O)N2` (centres unmarked) [Compound 5661118], the cell cycle arrest (cell cycle progression) is listed as “failed to elicit cell cycle arrest”, the “discoloration of solution prepared for biological evaluation” value ([1]; DMSO (10 mM)) is listed as “same discoloration” and the “discoloration of solutions prepared for NMR” value ([1]; 72 h) is listed as “Discoloration”. It also gave a Hill coefficient (MSN/CD44; MSN/CD44 TR-FRET dose–response curve) of 3.4.

For `CC(=O)c1ccc2c(c1)C1C=CCC1C(C(=O)O)N2` (centres unmarked) [CU-4], the “inhibition of α-isozyme of DGK” value [2] is given as “strongly inhibit”, the “inhibition of δ-isozyme of DGK” value (δ-isozyme of DGK) is given as “strongly inhibit” and the “inhibition of κ-isozyme of DGK” value (κ-isozyme of DGK) is given as “strongly inhibit”. For the same compound, the “inhibition of ι-isozyme of DGK” value (ι-isozyme of DGK) was “strongly inhibit”.

In the case of `CCOC(=O)c1ccc2c(c1)C1CCCC1C(C(=O)OCC)N2` (centres unmarked) [Compound 2], the “discoloration when dissolved in DMSO” value [1] was “No discoloration” and the “activity in MSN/CD44 TR-FRET assay” value (MSN/CD44) was “inactive”.

For `O=C(O)C1Nc2ccc(Oc3ccccc3)cc2C2C=CCC12` (centres unmarked) [Compound 27], the “inhibition of H. pylori growth” value (H. pylori) is listed as “only a weak inhibitor” and the “inhibitory effect in IspF domain assay” value (IspF domain) is listed as “did not show an inhibitory effect”.

In the case of `CCOC(=O)c1ccc2c(c1)C1C=CCC1C(C(=O)OCC)N2` (centres unmarked) [Compound 1, Diethyl 3a,4,5,9b-tetrahydro-3H-cyclopenta[c]quinoline-4,8-dicarboxylate], the “1H NMR analysis of samples kept in CDCl3” value ([1]; CDCl3, 120 h in light) was “no significant changes in the spectra”, the “stability in solution kept in the dark” value ([1]; DMSO-d6, dark, 72 h, 5 mg) was “remained a clear solution” and the “stability in solution kept in the light” value ([1]; DMSO-d6, light, 72 h, 25 mg and 5 mg) was “decomposed and changed color (purple)”. For the same compound, the “discoloration of solutions prepared for NMR” value ([1]; 72 h) was “Discoloration”.
